From patent US20250235531A1, “MUCOSAL ADMINISTRATION METHODS AND FORMULATIONS” (priority 2022, published 2025)

Assays:
[1] = Nanoparticle zeta potential (Malvern Zetasizer); format: physicochemical; settings: [mRNA] 0.01 mg/mL in 0.1×PBS, core LNP Compound 18, DSPC, Cholesterol, and DMG-PEG 2K
Experimental: LNPs were prepared according to Example 1. Zeta potential was measured by diluting LNPs to [mRNA]0.01 mg/mL in 0.1×PBS on a Malvern Zetasizer (Nano ZS).

healthy HBE cells = test: LNP cellular uptake and protein expression in healthy HBE cells; format: cell-based, human; settings: NPI-Luc mRNA, LNP core Compound 18, DSPC, Cholesterol, and DMG-PEG 2K
Experimental: NP-Luc is a dual read reporter made by adding a 5×V5 tag and a C-myc nuclear localization sequence at the N-terminus of Firefly Luciferase to enhance the signal to noise ratio. Protein expression can be detected using OneGLo assays with luminescence readout or by immunofluorescence with anti-V antibodies. LNP cellular uptake and protein expression was evaluated according to the procedure outlined in Example 5.

[2] = system: respiratory epithelium (trachea, bronchi); test: LNP protein expression in rat respiratory epithelium after single intratracheal dose (anti-V5 IHC); settings: intratracheal ~1.2 mpk, NPI-Luc mRNA, LNP core Compound 18, DSPC, Cholesterol, and DMG-PEG 2K
Experimental: (§1) Animals are anesthetized under isoflurane. The tongue is displaced and a small diameter cannula is inserted into the trachea (oropharyngeal route). The cannula tip is passed through the vocal chords, down the trachea so that the tip is very near, but not touching, the carina. Upon placement, 50 μL (mouse) or 200 μL (rat) of formulation is infused into the lungs. After 30 seconds upright, animads are released into a recovery cage and returned to their respective cages once recovered.
(§2) Trachea, lungs and for the aerosol study nasal cavities, nasopharynx and larynx are collected for analysis. Lungs are inflated with 10% NBF fixative and trachea tied off to maintain inflation. Lungs are removed en bloc with attached trachea, bronchi and lobes. […]
(§3) IHC was performed on FFPE sections using the Leica Bond RX autostainer. NPI-Luc protein expression was detected by anti-V5 tag antibody at a 1:100 dilution. V5 antibody was detected with the Bond Polymer Refine Detection kit followed by hematoxylin and bluing reagent counterstain. […] Trachea, lung and/or nasal cavity images were analyzed to capture total tracheal, bronchial or nasal epithelial cells and data expressed when appropriate as % V5 positive epithelial cells per total epithelial cells per animal. […]

[3] = system: respiratory epithelium (trachea, bronchi); test: LNP protein expression in mouse respiratory epithelium after single intratracheal dose (anti-V5 IHC); settings: intratracheal ~0.7 mpk, NPI-Luc mRNA, LNP core Compound 18, DSPC, Cholesterol, and DMG-PEG 2K
Experimental: as §1, §2, §3

HeLa = test: Protein expression in human cervical cancer epithelial cell (HeLa) model, NPI-Luc mRNA LNPs; format: cell-based; settings: LNP core Compound 18, DSPC
Experimental: NPI-Luc is a dual read reporter made by adding a 5×V5 tag and a C-myc nuclear localization sequence at the N-terminus of Firefly Luciferase to enhance the signal to noise ratio. Protein expression can be detected using OneGLo assays with luminescence readout or by immunofluorescence with anti-V5 antibodies. Protein expression was evaluated according to the procedure outlined in Example 6. The LNPs are dosed in 4 wells and the average response was reported. For the HeLa assay the luminescence read (RLU) were normalized to cell counts.

[4] = Luciferase mRNA nanoparticle biophysical data (DLS diameter and PDI, Ribogreen encapsulation); format: physicochemical; settings: luciferase mRNA nanoparticles (IL1:DSPC:cholesterol:PEG-DMG-2K) modified with the lipid amine; for Diameter (nm) / PDI: DLS; for % Encapsulation (Ribogreen): Ribogreen assay
Experimental: Lipids are dissolved in ethanol at a concentration of 24 mg/mL and molar ratios of 49.0:11.2:39.3:0.5 (IL1:DSPC:cholesterol:PEG-DMG-2K) and mixed with the acidification buffer (45 mM acetate buffer at pH 4). The lipid solution and acidification buffer are mixed using a multi-inlet vortex mixer at a 3:7 volumetric ratio of lipid:buffer for mixer 1 and mixer 2 and a 1:3 volumetric ratio of lipid:buffer (25% ethanol) for mixer 3. After a 5 second residence time, the resulting nanoparticles are mixed with 55 mM sodium acetate at pH 5.6 at a volumetric ratio of 5:7 of nanoparticle:buffer. See Table 24 for mixing parameters. The resulting dilute nanoparticles are then buffer exchanged and concentrated using tangential flow filtration (TFF) into a final buffer containing 5 mM sodium acetate pH 5.0. Then a 70% sucrose solution in 5 mM acetate buffer at pH 5 is subsequently added.
The resulting nanoparticles at a lipid concentration of 7.33 mg/mL in 5 mM acetate (pH 5) and 75 g/L sucrose are mixed with mRNA (luciferease) at a concentration of 0.625 mg/mL in 42.5 mM sodium acetate pH 5.0, with N:P of 4.93. The nanoparticle solution and nanoparticles are mixed using a multi-inlet vortex mixer at a 3:2 volumetric ratio of nanoparticle:mRNA. Once loaded with mRNA, these intermediate nanoparticles undergo a 300 second residence time prior addition of neutralization buffer containing 120 mM TRIS pH 8.12 at a volumetric ratio of 5:1 of nanoparticle:buffer.
For HeLa studies evaluating luciferase protein expression, PEG-DMG-2K dissolved in a 20 mM TRIS buffer (pH 7.5) is added to the neutralized intermediate nanoparticle solution at a ratio of 1:6, bringing the solution to the final molar ratios of IL1:DSPC:cholesterol:PEG-DMG-2K of 48.5:11.1:38.9:1.5%. This nanoparticle formulation is then modified with lipid amines. In a typical example, nanoparticle formulation at a concentration of 0.18 mg/mL mRNA and a 0.56 mL volume is modified with lipid amine SA50 (467.2 nmol) prepared in buffer containing 20 mM IRIS, 14.3 mM sodium acetate, 32 g/L sucrose and 140 mM NaCl—pH 7.5 at a volumetric ratio of 1:1 of nanoparticle: buffer.
Resulting nanoparticle suspensions are filtered through a 0.8/0.2 μm capsule filter and filled into glass vials at an mRNA strength of about 0.1-1 mg/mL Biophysical data (Diameter and PDI from DLS measurements and % Encapsulation using Ribogreen assay) for luciferase mRNA nanoparticles with lipid amines is shown in Table 26.

Row | SMILES | Zeta Potential (mV) ([1]; β-sitosterol) | Average accumulation of LNP in healthy HBE (% positive cells) (healthy HBE cells; β-sitosterol) | Average protein expression in healthy HBE (% V5 positive cells) (healthy HBE cells; β-sitosterol) | Diameter (nm) [4] [nm] | PDI [4] | % Encapsulation (Ribogreen) [4] [%] | further results
1 | CC(C)CCC[C@@H](C)[C@H]1CC[C@H]2[C@@H]3CC=C4C[C@@H](OC(=O)NCCCNCCCCN)CC[C@]4(C)[C@H]3CC[C@]12C [SA30] | 8.7 | 49.9 | 11.9 | – | – | – | –
2 | CC(C)CCC[C@@H](C)[C@H]1CC[C@H]2[C@@H]3CC=C4C[C@@H](OC(=O)N(CCCN)CCCCNCCCN)CC[C@]4(C)[C@H]3CC[C@]12C [SA3] | – | – | – | – | – | – | Average % V5 positive cells/total cells ([2]; Rat Bronchi (left and right lung)): 4.95 % V5 positive cells/total cell; Average % V5 positive cells/total cells ([2]; Rat Trachea): 2.97 % V5 positive cells/total cell; Average % V5 positive cells/total cells ([3]; Mouse Bronchi (left lung)): 9.33 % V5 positive cells/total cell; Average % V5 positive cells/total cells ([3]; Mouse Trachea): 40.7 % V5 positive cells/total cell; Zeta Potential (mV) [1]: 10.6 mV; Average accumulation of LNP in healthy HBE (% positive cells) (healthy HBE cells): 43.7 % positive cells; Average protein expression in healthy HBE (% V5 positive cells) (healthy HBE cells): 9.4 % V5 positive cells; Average protein expression per cell (RLU per cell) (HeLa; Cholesterol, and DMG-PEG 2K): 111.0 RLU per cell
3 | CC(C)CCC[C@@H](C)[C@H]1CC[C@H]2[C@@H]3CC=C4C[C@@H](OC(=O)NCCNC(=N)N)CC[C@]4(C)[C@H]3CC[C@]12C [SA23] | 12.7 | 34.3 | 9.1 | – | – | – | –
4 | CC(C)CCC[C@@H](C)[C@H]1CC[C@H]2[C@@H]3CC=C4C[C@@H](OC(=O)N(CCCN)CCCCN)CC[C@]4(C)[C@H]3CC[C@]12C [SA29] | 8.3 | 56.2 | 12.1 | – | – | – | –
5 | CC(C)CCC[C@@H](C)[C@H]1CC[C@H]2[C@@H]3CC=C4C[C@@H](OC(=O)CCC(=O)N(CCCN)CCCCN)CC[C@]4(C)[C@H]3CC[C@]12C [SA31] | 8.6 | 43.2 | 11.1 | – | – | – | –
6 | CC[C@H](CC[C@@H](C)[C@H]1CC[C@H]2[C@@H]3CC=C4C[C@@H](OC(=O)N(CC56CC(N)(C5)C6)CC56CC(N)(C5)C6)CC[C@]4(C)[C@H]3CC[C@]12C)C(C)C.Cl.Cl [SA189, (3S,8S,9S,10R,13R,14S,17R)-17-((2R,5R)-5-ethyl-6-methylheptan-2-yl)-10,13-dimethyl-2,3,4,7,8,9,10,11,12,13,14,15,16,17-tetradecahydro-1H-cyclopenta[a]phenanthren-3-yl bis((3-aminobicyclo[1.1.1]pentan-1-yl)methyl)carbamate dihydrochloride] | – | – | – | 78 | 0.33 | 98.1 | –
7 | CC(C)c1ccc2c(c1)CC[C@H]1[C@](C)(CNC(=O)CCN(C)C)CCC[C@]21C [SA16] | – | – | – | – | – | – | Average protein expression per cell (RLU per cell) (HeLa; Cholesterol, and Compound 428): 14.5 RLU per cell
8 | CC[C@H](CC[C@@H](C)[C@H]1CC[C@H]2[C@@H]3CC=C4C[C@@H](OC(=O)N(CCCCNCCC(C)N)CCC(C)N)CC[C@]4(C)[C@H]3CC[C@]12C)C(C)C.Cl.Cl.Cl (stereo partly drawn) [SA111, (3S,8S,9S,10R,13R,14S,17R)-17-((2R,5R)-5-ethyl-6-methylheptan-2-yl)-10,13-dimethyl-2,3,4,7,8,9,10,11,12,13,14,15,16,17-tetradecahydro-1H-cyclopenta[a]phenanthren-3-yl (3-aminobutyl)(4-((3-aminobutyl)amino)butyl)carbamate trihydrochloride] | – | – | – | 76 | 0.18 | 99.6 | –
9 | CC(C)CCC[C@@H](C)[C@H]1CC[C@H]2[C@@H]3CC=C4C[C@@H](OC(=O)CCCC(=O)N(CCC5CC(N)C5)CCC5CC(N)C5)CC[C@]4(C)[C@H]3CC[C@]12C.Cl.Cl (stereo partly drawn) [SA188, (3S,8S,9S,10R,13R,14S,17R)-10,13-dimethyl-17-((R)-6-methylheptan-2-yl)-2,3,4,7,8,9,10,11,12,13,14,15,16,17-tetradecahydro-1H-cyclopenta[a]phenanthren-3-yl 5-(bis(2-(3-aminocyclobutyl)ethyl)amino)-5-oxopentanoate dihydrochloride] | – | – | – | 80 | 0.13 | 99.6 | –
10 | CC(C)CCC[C@@H](C)[C@H]1CC[C@H]2[C@@H]3CC=C4C[C@@H](OC(=O)NCCN(C)C)CC[C@]4(C)[C@H]3CC[C@]12C [SA4] | – | – | – | – | – | – | Average protein expression per cell (RLU per cell) (HeLa; Cholesterol, and Compound 428): 248.5 RLU per cell
11 | CC[C@H](CC[C@@H](C)[C@H]1CC[C@H]2[C@@H]3CC=C4C[C@@H](OC(=O)N(CCC5CC(N)C5)CCC5CC(N)C5)CC[C@]4(C)[C@H]3CC[C@]12C)C(C)C.Cl.Cl (stereo partly drawn) [SA186, (3S,8S,9S,10R,13R,14S,17R)-17-((2R,5R)-5-ethyl-6-methylheptan-2-yl)-10,13-dimethyl-2,3,4,7,8,9,10,11,12,13,14,15,16,17-tetradecahydro-1H-cyclopenta[a]phenanthren-3-yl bis(2-(3-aminocyclobutyl)ethyl)carbamate dihydrochloride] | – | – | – | 73 | 0.14 | 99.3 | –
12 | CC[C@H](CC[C@@H](C)[C@H]1CC[C@H]2[C@@H]3CC=C4C[C@@H](SSCCC(=O)N(CCC5CC(N)C5)CCC5CC(N)C5)CC[C@]4(C)[C@H]3CC[C@]12C)C(C)C.Cl.Cl (stereo partly drawn) [SA187, N,N-bis(2-(3-aminocyclobutyl)ethyl)-3-(((3S,8S,9S,10R,13R,14S,17R)-17-((2R,5R)-5-ethyl-6-methylheptan-2-yl)-10,13-dimethyl-2,3,4,7,8,9,10,11,12,13,14,15,16,17-tetradecahydro-1H-cyclopenta[a]phenanthren-3-yl)disulfaneyl)propanamide dihydrochloride] | – | – | – | 73 | 0.17 | 99.0 | –
